Results: patent publication US20230167073A1 (Teijin Pharma Limited, priority 2020, published 2023)
Read-outs that look alike come from different tables or passages of the source.

Molecular target: T1, Human TRPC6 (Homo sapiens, UniProt Q9Y210)
T1 construct: expressed in transfected cells
T1 sequence (Q9Y210 1-931): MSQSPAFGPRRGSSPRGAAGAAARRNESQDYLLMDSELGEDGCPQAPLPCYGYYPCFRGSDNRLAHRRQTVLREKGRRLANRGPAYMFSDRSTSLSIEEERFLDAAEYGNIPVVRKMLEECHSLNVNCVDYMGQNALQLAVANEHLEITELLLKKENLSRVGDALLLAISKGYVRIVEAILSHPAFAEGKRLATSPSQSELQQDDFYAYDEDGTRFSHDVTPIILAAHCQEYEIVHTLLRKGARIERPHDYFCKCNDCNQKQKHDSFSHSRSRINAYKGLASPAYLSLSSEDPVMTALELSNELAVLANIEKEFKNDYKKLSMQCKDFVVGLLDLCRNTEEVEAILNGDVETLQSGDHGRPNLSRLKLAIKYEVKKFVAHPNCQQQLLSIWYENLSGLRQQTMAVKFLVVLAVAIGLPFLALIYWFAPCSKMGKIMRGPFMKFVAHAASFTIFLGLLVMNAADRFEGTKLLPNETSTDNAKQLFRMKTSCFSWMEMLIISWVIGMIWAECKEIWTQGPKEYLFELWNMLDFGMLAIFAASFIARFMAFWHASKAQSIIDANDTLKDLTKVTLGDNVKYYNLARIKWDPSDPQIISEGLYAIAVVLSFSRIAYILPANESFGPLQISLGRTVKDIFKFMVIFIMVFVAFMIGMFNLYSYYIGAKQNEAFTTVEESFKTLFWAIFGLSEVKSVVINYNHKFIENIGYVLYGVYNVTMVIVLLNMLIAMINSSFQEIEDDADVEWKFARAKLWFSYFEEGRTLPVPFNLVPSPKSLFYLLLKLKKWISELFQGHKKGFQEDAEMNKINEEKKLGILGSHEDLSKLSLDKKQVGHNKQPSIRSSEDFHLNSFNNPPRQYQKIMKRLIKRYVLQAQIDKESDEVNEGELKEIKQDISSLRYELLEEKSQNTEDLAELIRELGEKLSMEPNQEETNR
Experiment: Evaluation of TRPC6 channel inhibitory activity (1), FLIPR Calcium 5 Assay Kit, OAG stimulation (Compound Nos. 1-1293)
Assay type: cell-based
Experimental: Evaluation of TRPC6 Channel Inhibitory Activity (1) (Compound Nos. 1-1293)
In order to investigate TRPC6 channel inhibitory activity of the compounds, evaluation was conducted using FLIPR® Calcium 5 Assay Kit (Molecular Devices) in accordance with the following procedure. Human TRPC6 stably-expressing cells were seeded in a 384-well black clear bottom plate at a density of 5×10^3/well and cultured in an incubator at 37° C. 5% CO2 for 24 hours. Thereafter, 25 μL of a Non Wash Dye Solution, prepared using Component A, 20 mM HEPES-HBSS and 250 mM probenecid, all of which are included in the kit, was added to each well, and the plate was incubated for 30 minutes. A volume of 12.5 μL of a compound solution was added into each well while the fluorescence was measured with FLIPR tetra. After 20 minutes, 12.5 μL of a 1-oleoyl-2-acetyl glycerol (OAG) solution was added at a final concentration of 30 μM. The difference between the minimum fluorescence intensity before the addition of the compound and the maximum fluorescence intensity after the addition of OAG was defined as a signal. An inhibition rate was calculated, assuming the average signal of wells without the compound as the inhibition rate of 0% and the average signal of wells without the compound and OAG as the inhibition rate of 100%. The calculated inhibition rate was analyzed by a four-parameter logistic regression to quantify the inhibition rate in the logarithm of the inverse of the effective concentration which gives a 50% inhibition rate (pIC50). The intensity was expressed by the following symbols (+, ++, +++).

[1] = Human TRPC6 stably-expressing cells, OAG 30 μM, FLIPR Calcium 5 Assay Kit, read-out: Inhibitory activity (pIC50 class) (converted)

IC50 [1] | Compound | IC50
< 10 nM | CCCCc1cc(Oc2cc(C#N)ccc2-c2ncc(C(O)CN)cn2)n(C)n1 (stereo not shown) [compound 337, 4-[5-(2-amino-1-hydroxyethyl)pyrimidin-2-yl]-3-(5-butyl-2-methylpyrazol-3-yl)oxybenzonitrile] | 
10 to 1000 nM | Cn1nc(C2CC2)cc1Oc1cc(C#N)ccc1-c1ncc(OCCN)cn1 [compound 385, 4-[5-(2-aminoethoxy)pyrimidin-2-yl]-3-(5-cyclopropyl-2-methylpyrazol-3-yl)oxybenzonitrile] | 
10 to 1000 nM | N#Cc1ccc(-c2ccc(C(CN)C(F)(F)F)cc2)c(Oc2cnnc(N3CCOCC3)c2)c1 (stereo not shown) [Compound 122, 4-[4-(3-amino-1,1,1-trifluoropropan-2-yl)phenyl]-3-(6-morpholin-4-ylpyridazin-4-yl)oxybenzonitrile] | 
> 1000 nM | Cn1nc(C2CC2)cc1Oc1cc(C#N)ccc1-c1cccc2nc(N)nn12 [compound 475, 4-(2-amino-[1,2,4]triazolo[1,5-a]pyridin-5-yl)-3-(5-cyclopropyl-2-methylpyrazol-3-yl)oxybenzonitrile] | 
10 to 1000 nM | CC(C)COc1cc(Oc2cc(C#N)ccc2-c2ncc(CN)cn2)cnn1 [compound 819, 4-[5-(aminomethyl)pyrimidin-2-yl]-3-[6-(2-methylpropoxy)pyridazin-4-yl]oxybenzonitrile] | 
< 10 nM | Cn1nc(-c2ccccc2)cc1Oc1cc(C#N)ccc1-c1ccc(C(O)C(C)(C)N)cn1 (stereo not shown) [compound 301, 4-[5-(2-amino-1-hydroxy-2-methylpropyl)pyridin-2-yl]-3-(2-methyl-5-phenylpyrazol-3-yl)oxybenzonitrile] | 
10 to 1000 nM | Cc1nc(Oc2cc(C#N)ccc2-c2csc(C(O)CN)n2)cc(-c2ccccc2)n1 (stereo not shown) [Compound 195, 4-[2-(2-amino-1-hydroxyethyl)-1,3-thiazol-4-yl]-3-(2-methyl-6-phenylpyrimidin-4-yl)oxybenzonitrile] | 
> 1000 nM | Cc1nc(Oc2cc(C#N)ccc2-c2ccc(C(=O)CN)cc2)cc(N2CCOCC2)n1 [Compound 8, 4-[4-(2-aminoacetyl)phenyl]-3-(2-methyl-6-morpholin-4-ylpyrimidin-4-yl)oxybenzonitrile] | 
> 1000 nM | Cn1nc(C2CC2)cc1Oc1cc(C#N)ccc1-c1cccn2c(C[C@H](N)C(=O)O)nnc12 (stereo in doubt) [compound 581, 2-amino-3-[8-[4-cyano-2-(5-cyclopropyl-2-methylpyrazol-3-yl)oxyphenyl]-[1,2,4]triazolo[4,3-a]pyridin-3-yl]propanoic acid] | 
> 1000 nM | Cc1cc(Oc2cc(C#N)ccc2-c2cc(CN)cn3cnnc23)cc(N2CCOCC2)n1 [compound 733, 4-[6-(aminomethyl)-[1,2,4]triazolo[4,3-a]pyridin-8-yl]-3-(2-methyl-6-morpholin-4-ylpyridin-4-yl)oxybenzonitrile] | 
10 to 1000 nM | N#Cc1ccc(-c2ncc(CCN)cn2)c(Cn2cc(-c3ccccc3)cn2)c1 [compound 1201, 4-[5-(2-aminoethyl)pyrimidin-2-yl]-3-[(4-phenylpyrazol-1-yl)methyl]benzonitrile] | 
< 10 nM | N#Cc1ccc(-c2ncc(CN)cn2)c(C(=O)c2cnn(C3CCC3)c2)c1 [compound 1058, 4-[5-(aminomethyl)pyrimidin-2-yl]-3-(1-cyclobutylpyrazole-4-carbonyl)benzonitrile] | 
< 10 nM | Cn1nc(C(C)(C)C)cc1Oc1cc(C#N)ccc1-c1ccc([C@H](O)CN)cn1 [compound 405, 4-[5-[(1S)-2-amino-1-hydroxyethyl]pyridin-2-yl]-3-(5-tert-butyl-2-methylpyrazol-3-yl)oxybenzonitrile] | 
10 to 1000 nM | Cc1cc(Oc2cc(C#N)ccc2-c2ccc(C(N)C(N)=O)cn2)cc(N2CCOCC2)n1 (stereo not shown) [compound 418, 2-amino-2-[6-[4-cyano-2-(2-methyl-6-morpholin-4-ylpyridin-4-yl)oxyphenyl]pyridin-3-yl]acetamide] | 
< 10 nM | N#Cc1ccc(-c2ccc(CCN)cc2)c(Oc2cnnc(C3CCCC3)c2)c1 [Compound 137, 4-[4-(2-aminoethyl)phenyl]-3-(6-cyclopentylpyridazin-4-yl)oxybenzonitrile] | 
 | N#Cc1ccc(-c2ncc(CCN)cn2)c(Oc2cc(N3C4CCC3CC4)ncc2C#N)c1 [compound 748, 4-[2-[5-(2-aminoethyl)pyrimidin-2-yl]-5-cyanophenoxy]-6-(7-azabicyclo[2.2.1]heptan-7-yl)pyridine-3-carbomtrile] | < 10 nM
> 1000 nM | Cc1ccc(-c2cc(Oc3cc(C#N)ccc3-c3ccc(CCN)nc3)nc(C)n2)nc1 [Compound 189, 4-[6-(2-aminoethyl)pyridin-3-yl]-3-[2-methyl-6-(5-methylpyridin-2-yl)pyrimidin-4-yl]oxybenzonitrile] | 
 | N#Cc1ccc(-c2ncc(CCN)cn2)c(Oc2nnc(N3C4CCC3CC4)s2)c1 [compound 767, 4-[5-(2-aminoethyl)pyrimidin-2-yl]-3-[[5-(7-azabicyclo[2.2.1]heptan-7-yl)-1,3,4-thiadiazol-2-yl]oxy]benzonitrile] | < 10 nM
10 to 1000 nM | Cc1nc(Sc2cc(C#N)ccc2-c2ccc(CCN)cn2)cc(N2CCCC2)n1 [compound 1250, 4-[5-(2-aminoethyl)pyridin-2-yl]-3-(2-methyl-6-pyrrolidin-1-ylpyrimidin-4-yl)sulfanylbenzonitrile] | 
10 to 1000 nM | N#Cc1ccc(-n2cc(CCN)cn2)c(Oc2cnnc(N3CCOCC3)c2)c1 [Compound 282, 4-[4-(2-aminoethyl)pyrazol-1-yl]-3-(6-morpholin-4-ylpyridazin-4-yl)oxybenzonitrile] | 
< 10 nM | Cc1cc(Oc2cc(C#N)c(C)cc2-c2ncc(CCN)cn2)cc(N2CCOCC2)n1 [compound 900, 4-[5-(2-aminoethyl)pyrimidin-2-yl]-2-methyl-5-(2-methyl-6-morpholin-4-ylpyridin-4-yl)oxybenzonitrile] | 
< 10 nM | Cn1nc(-c2ccccc2)cc1Oc1cc(C#N)ccc1-c1ncc(CCN)cn1 [Compound 274, 4-[5-(2-aminoethyl)pyrimidin-2-yl]-3-(2-methyl-5-phenylpyrazol-3-yl)oxybenzonitrile] | 
< 10 nM | Cc1nc(NC(C)(C)C)cc(Oc2cc(C#N)ccc2-c2ncc(CN)cn2)n1 [compound 637, 4-[5-(aminomethyl)pyrimidin-2-yl]-3-[6-(tert-butylamino)-2-methylpyrimidin-4-yl]oxybenzonitrile] | 
< 10 nM | Cc1cc(Oc2cc(C#N)ccc2-c2ncc(CCN)cn2)cc(N2CC(F)C2)n1 [compound 503, 4-[5-(2-aminoethyl)pyrimidin-2-yl]-3-[2-(3-fluoroazetidin-1-yl)-6-methylpyridin-4-yl]oxybenzonitrile] | 
< 10 nM | Cc1cccc(-c2cc(Oc3cc(C#N)ccc3-n3cc([C@@H](O)CN)cn3)nc(C)n2)c1 [Compound 205, 4-[4-[(1R)-2-amino-1-hydroxyethyl]pyrazol-1-yl]-3-[2-methyl-6-(3-methylphenyl)pyrimidin-4-yl]oxybenzonitrile] | 
10 to 1000 nM | Cc1nc(Oc2cc(C#N)ccc2-c2ncc([C@H](O)CN)cn2)cc(N2CCOC(C)(C)C2)n1 [compound 561, 4-[5-[(1S)-2-amino-1-hydroxyethyl]pyrimidin-2-yl]-3-[6-(2,2-dimethylmorpholin-4-yl)-2-methylpyrimidin-4-yl]oxybenzonitrile] | 
> 1000 nM | Cn1nc(C2CC2)cc1Oc1cc(C#N)ccc1-c1cc(N)nc2ccnn12 [compound 468, 4-(5-aminopyrazolo[1,5-a]pyrimidin-7-yl)-3-(5-cyclopropyl-2-methylpyrazol-3-yl)oxybenzonitrile] | 
> 1000 nM | Cc1cc(Oc2cc(C#N)ccc2-c2ccc(N3CC(N)CC3=O)cn2)cc(N2CCOCC2)n1 (stereo not shown) [compound 568, 4-[5-(4-amino-2-oxopyrrolidin-1-yl)pyridin-2-yl]-3-(2-methyl-6-morpholin-4-ylpyridin-4-yl)oxybenzonitrile] | 
